Here are results for two compounds from PMC11370452 (bioRxiv, 2024).

The subject of one assay is MOR. The settings on record: database annotation; cited from earlier work.
Another assay deals with GABABR (Rattus norvegicus, UniProt O88871+Q9Z0U4). Format: cell-based. Particulars: with Gαi bystander BRET sensor expression versus control. In general terms: BRET reads energy transfer from a luciferase to a nearby fluorophore.
Sequence of GABABR (Q9Z0U4 17-960 limits assumed): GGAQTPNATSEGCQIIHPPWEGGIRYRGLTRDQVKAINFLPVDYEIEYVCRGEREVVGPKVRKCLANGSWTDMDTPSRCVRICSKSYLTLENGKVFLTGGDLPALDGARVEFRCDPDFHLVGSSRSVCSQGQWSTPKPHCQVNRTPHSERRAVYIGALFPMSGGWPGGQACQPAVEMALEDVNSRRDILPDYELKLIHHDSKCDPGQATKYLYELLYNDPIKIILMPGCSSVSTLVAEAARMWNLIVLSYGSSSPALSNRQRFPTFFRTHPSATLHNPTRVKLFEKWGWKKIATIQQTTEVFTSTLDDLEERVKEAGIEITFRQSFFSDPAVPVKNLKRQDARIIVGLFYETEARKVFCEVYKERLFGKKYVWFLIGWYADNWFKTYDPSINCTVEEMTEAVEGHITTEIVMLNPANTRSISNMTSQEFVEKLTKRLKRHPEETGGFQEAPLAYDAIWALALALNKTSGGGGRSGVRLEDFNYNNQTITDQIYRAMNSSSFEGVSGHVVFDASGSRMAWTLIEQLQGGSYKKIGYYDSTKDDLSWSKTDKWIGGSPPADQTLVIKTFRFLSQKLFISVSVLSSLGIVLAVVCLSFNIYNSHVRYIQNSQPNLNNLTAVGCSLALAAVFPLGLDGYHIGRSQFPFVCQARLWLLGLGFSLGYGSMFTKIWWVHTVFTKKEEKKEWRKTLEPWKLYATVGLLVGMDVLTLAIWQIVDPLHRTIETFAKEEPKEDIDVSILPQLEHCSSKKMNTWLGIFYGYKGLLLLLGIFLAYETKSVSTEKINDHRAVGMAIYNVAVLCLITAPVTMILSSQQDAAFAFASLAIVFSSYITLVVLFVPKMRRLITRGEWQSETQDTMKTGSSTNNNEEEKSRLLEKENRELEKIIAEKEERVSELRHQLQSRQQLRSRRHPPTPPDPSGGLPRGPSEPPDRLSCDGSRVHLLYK
Sequence of GABABR (O88871 41-940 partner): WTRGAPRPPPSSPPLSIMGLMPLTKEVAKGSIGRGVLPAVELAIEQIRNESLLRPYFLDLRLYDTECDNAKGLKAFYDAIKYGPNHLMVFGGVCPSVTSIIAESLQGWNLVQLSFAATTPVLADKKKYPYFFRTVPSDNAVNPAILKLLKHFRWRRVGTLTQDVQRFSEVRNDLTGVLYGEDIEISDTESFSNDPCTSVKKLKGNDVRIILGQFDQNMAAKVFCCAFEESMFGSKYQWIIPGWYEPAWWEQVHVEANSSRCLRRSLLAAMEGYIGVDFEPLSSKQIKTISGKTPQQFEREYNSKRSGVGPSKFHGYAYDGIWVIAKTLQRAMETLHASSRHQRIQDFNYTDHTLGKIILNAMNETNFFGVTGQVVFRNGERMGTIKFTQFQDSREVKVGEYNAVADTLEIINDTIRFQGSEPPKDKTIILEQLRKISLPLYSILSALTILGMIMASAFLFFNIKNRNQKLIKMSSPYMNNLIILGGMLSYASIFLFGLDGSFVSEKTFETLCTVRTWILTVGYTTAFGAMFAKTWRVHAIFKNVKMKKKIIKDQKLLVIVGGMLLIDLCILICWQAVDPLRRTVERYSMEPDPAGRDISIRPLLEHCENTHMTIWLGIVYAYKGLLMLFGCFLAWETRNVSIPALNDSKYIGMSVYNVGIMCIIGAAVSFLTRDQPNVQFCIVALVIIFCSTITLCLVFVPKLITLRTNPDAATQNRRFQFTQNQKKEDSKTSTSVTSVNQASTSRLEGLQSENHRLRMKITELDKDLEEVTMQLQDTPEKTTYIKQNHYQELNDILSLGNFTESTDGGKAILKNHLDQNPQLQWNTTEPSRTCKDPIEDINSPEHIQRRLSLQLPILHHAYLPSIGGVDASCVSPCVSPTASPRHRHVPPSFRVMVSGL

For Leu-Enkephalin, the “Agonist efficacy, MOR: IUPHAR annotation” value in the assay on MOR is “partial agonist”.

Take `NCCCC(=O)O` [GABA]: the “increase in the IC50 of inhibition by GABA” value at GABABR was ~ 4 fold.
